Laboratory results published in publication PMC7893915, “Assessing cross-resistance within the pyrethroids in terms of their interactions with key cytochrome P450 enzymes and resistance in vector populations” (Parasites & Vectors, 2021).
Where two headings read alike, the source gives them in different places.

Legend:
[1] = system: CYP6M2, CYP6P3 and CYP6P9a; assay: Pyrethroid metabolism (insecticide depletion), across CYP6M2, CYP6P3 and CYP6P9a; type: in vitro ADME, Anopheles gambiae and An. funestus; details: mean ± SD across CYP6M2, CYP6P3, CYP6P9a
Source text: (§1) In this study, the half maximal inhibitory concentration (IC50), which provides a value for inhibition of each P450 by each pyrethroid (also referred to as ‘binding affinity’), and the percentage depletion, which gives a value for metabolism of each pyrethroid by each P450 (also referred to as vulnerability to metabolic attack), were both included as parameters to establish a P450s structural activity relationship model. This model was used to understand both the chemistry of the pyrethroids and the interaction with mosquito P450s that function as monooxygenases in metabolic resistance, to predict cross-resistance liabilities in vivo. […] A low percentage depletion indicates low metabolism of the pyrethroid, which means that it may be less vulnerable to resistance mediated by P450s.
The values for percentage depletion (metabolism) of each pyrethroid by three of the enzymes CYP6M2, CYP6P3 and CYP6P9a, which were expressed in a single plasmid construct, were also extracted from the same sources and used for the comparative analysis.

[2] = system: An. funestus strain, FUMOZ-R; parameters: method as in PMID 26930058; details: strain with upregulated P450 levels without any target-site mutations; ref [47]; cited from earlier work
CYP6M2 = details: Incubation time 2h; mean ± SD; ref [38], [41]; cited from earlier work
CYP6P3 [3] = details: Incubation time 2h; mean ± SD; ref [38], [41]; cited from earlier work
CYP6P9a [4] = details: Incubation time 2h; mean ± SD; ref [38], [41]; cited from earlier work
Anopheles arabiensis = details: F0, larval collection, Sudan, WHO Bioassay 1998, ref Abdalla H et al. Parasites Vectors. 2014;7:213, cited from earlier work
CYP6Z3 = biological target: T1, CYP6Z3 (Anopheles gambiae, UniProt Q86LT6, H411Y/S209G/W396L); assay: Inhibition screening of pyrethroids, diethoxyfluorescein, CYP6Z3; type: biochemical
T1 sequence (Q86LT6 1-492 S209G/W396L/H411Y): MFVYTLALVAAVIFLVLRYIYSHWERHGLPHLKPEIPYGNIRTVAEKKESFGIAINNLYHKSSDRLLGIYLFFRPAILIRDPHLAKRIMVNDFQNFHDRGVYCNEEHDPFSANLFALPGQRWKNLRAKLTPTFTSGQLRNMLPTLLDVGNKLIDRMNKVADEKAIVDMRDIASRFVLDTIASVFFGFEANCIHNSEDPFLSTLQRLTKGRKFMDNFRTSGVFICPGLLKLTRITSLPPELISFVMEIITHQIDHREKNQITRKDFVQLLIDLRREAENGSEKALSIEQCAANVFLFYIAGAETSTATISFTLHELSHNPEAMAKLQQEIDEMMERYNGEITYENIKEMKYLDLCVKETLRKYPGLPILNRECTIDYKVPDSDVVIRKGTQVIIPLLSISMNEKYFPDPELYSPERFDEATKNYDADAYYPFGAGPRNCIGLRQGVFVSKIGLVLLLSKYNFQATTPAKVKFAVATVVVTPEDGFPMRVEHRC
T1 sequence (Q86QH5 1-679 partner): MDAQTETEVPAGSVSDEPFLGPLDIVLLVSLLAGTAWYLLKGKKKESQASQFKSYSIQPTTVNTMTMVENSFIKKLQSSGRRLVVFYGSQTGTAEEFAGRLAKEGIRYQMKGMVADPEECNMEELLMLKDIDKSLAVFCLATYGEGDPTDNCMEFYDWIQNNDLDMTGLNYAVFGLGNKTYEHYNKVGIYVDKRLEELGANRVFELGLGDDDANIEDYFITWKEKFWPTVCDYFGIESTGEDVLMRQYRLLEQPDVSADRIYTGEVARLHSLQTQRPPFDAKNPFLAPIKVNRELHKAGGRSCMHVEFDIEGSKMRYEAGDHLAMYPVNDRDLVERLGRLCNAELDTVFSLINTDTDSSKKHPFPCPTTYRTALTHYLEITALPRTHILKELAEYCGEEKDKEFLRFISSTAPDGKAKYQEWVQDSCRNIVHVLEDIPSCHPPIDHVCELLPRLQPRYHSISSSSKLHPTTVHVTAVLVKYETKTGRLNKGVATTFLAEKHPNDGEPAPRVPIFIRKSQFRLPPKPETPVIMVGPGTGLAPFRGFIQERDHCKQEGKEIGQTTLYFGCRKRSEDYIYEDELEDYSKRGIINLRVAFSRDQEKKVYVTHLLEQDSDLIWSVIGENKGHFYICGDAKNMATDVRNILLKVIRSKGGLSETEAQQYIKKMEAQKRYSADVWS
Source text: as §1, with “Cytochrome P450 inhibition assays using fluorogenic probe substrates have become commonplace in drug discovery screening cascades and are a rapid method of screening for insecticide interactions with mosquito P450s to predict insecticide binding, metabolism, cross-resistance and synergism. In” for “In”
(§2) In addition, inhibition activity data for these pyrethroids exposed to CYP6Z3 from the An. gambiae Kisumu strain were also generated (Additional file 1).
1. Preparation of An. gambiae CYP6Z3 and cloning
Total RNA was extracted with Arcturus PicoPure Kit (Applied Biosystems, USA) from ten adult An. gambiae mosquitoes from the Kisumu strain [1]. Complementary DNA was prepared using Superscript III (Invitrogen) with an oligo (dT)20 primer and used as a template for amplifying full -length AgCyp6z3 with KOD DNA polymerase (Merk Chemicals) . The gene-specific primers used in these high -fidelity PCRs (Table S1) were designed according to the reference An. gambiae PEST CYP6Z3 genome sequence (Accession number AY193727) The PCR product was ligated into pGEM T-easy vector (Promega) and sequenced on both strands. Consistent with the high frequency of polymorphism in An. gambiae P450s [2](Martin Nature Ref) there were 36 single nucleotide polymorphism (SNPs) compared with the reference sequence, of which three produced amino acid changes, S209G, W396L, and H411Y. For expression, the ompA leader sequence (ompA) was engineered onto the amino - terminus of the AgCyp6z3 gene to direct the P450 into the E. coli […] during expression as previously described. The ompA-leader was fused to AgCyp6z3 cDNA in frame with AgCyp6z3 initiation codon by fusion PCR using High fidelity Phusion polymerase (Scientific). The ompA AgCyp6z3 fusion was flanked at the 5′ and 3′ ends with NdeI and EcoR1, respectively for ligation into NdeI/EcoRI linearised pB13 (pCWori+).
Table S1. Primers used for amplification of CYP6Z3 and in vitro functional characterisation […]
ompA+2 Forward […]
ompA+2 CYP6Z3 fusion […]
2. Preparation of membranes expressing P450 and AgCPR
To express functional P450, AgCyp6z3 cloned into pB13 plasmid was co-transformed into E. coli JM109 cells with An. gambiae NADPH-cytochrome P450 reductase (AgCPR-pACYC). The P450 and the AgCPR were previously fused with ompA and pelB leader sequences respectively to direct the expressed proteins to the inner bacterial periplasm in order to form functional monooxygenase complex. For P450 production, 200 mL E. coli cultures in Terrific Broth were incubated at 21°C with shaking at 120 RPM for 18–24 h after induction with 1 mM IPTG. Following expression, E. coli membranes containing CYP6Z3 were isolated and P450 and AgCPR content measured as previously described. Samples were stored in aliquots of 100 µL at −80°C. An. gambiae cytochrome b5 was prepared as described previously to supplement enzyme reactions at an 8:1 M ratio, b5: P450 [4].
3. Inhibition screening of pyrethroids.
Inhibition screening of pyrethroid inhibitors and IC50 calculations carried out according Yunta et al. […]

CYP6Z2 = biological target: T2, CYP6Z2 (Anopheles gambiae, UniProt Q7PNB5); assay: Inhibition screening of pyrethroids, diethoxyfluorescein, CYP6Z2; type: biochemical
T2 sequence (Q7PNB5 1-492): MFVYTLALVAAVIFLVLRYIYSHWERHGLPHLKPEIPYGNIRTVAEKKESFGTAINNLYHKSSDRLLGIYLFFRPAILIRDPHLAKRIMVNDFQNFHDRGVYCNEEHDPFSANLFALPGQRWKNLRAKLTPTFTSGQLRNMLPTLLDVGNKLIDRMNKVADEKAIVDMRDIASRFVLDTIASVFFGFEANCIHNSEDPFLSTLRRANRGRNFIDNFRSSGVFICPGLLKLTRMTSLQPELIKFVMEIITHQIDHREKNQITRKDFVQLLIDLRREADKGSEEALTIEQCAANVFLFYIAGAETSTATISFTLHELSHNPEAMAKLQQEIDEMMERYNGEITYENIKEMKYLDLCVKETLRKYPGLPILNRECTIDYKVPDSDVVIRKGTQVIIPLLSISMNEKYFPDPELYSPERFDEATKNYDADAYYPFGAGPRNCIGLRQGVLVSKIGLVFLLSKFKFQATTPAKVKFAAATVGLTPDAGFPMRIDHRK
T2 sequence (Q86QH5 1-679 partner): T1 sequence (Q86QH5 1-679 partner)

[5] = system: P450 panel (CYP6M2, CYP6P3, CYP6P9a, CYP6P2, CYP9J5, CYP6Z3, CYP6Z2); assay: P450 inhibition, whole P450 panel (mean across P450s); type: biochemical, Anopheles gambiae and An. funestus; details: Anopheles gambiae and Anopheles funestus
Source text: as §1, with “Cytochrome P450 inhibition assays using fluorogenic probe substrates have become commonplace in drug discovery screening cascades and are a rapid method of screening for insecticide interactions with mosquito P450s to predict insecticide binding, metabolism, cross-resistance and synergism. In” for “In”
as §2

CYP6P3 [6] = details: read-out: IC50 CYP6P3; inhibition of diethoxyfluorescein metabolism; footnote b; ref Yunta et al. 2019[10]; cited from earlier work
CYP6P9a [7] = details: read-out: IC50 CYP6P9a; inhibition of diethoxyfluorescein metabolism; footnote b; ref Yunta et al. 2019[10]; cited from earlier work
CYP6P2 = details: read-out: IC50 CYP6P2; inhibition of diethoxyfluorescein metabolism; footnote b; ref Yunta et al. 2019[10]; cited from earlier work
CYP9J5 = details: read-out: IC50 CYP9J5; inhibition of diethoxyfluorescein metabolism; footnote b; ref Yunta et al. 2019[10]; cited from earlier work
Gambiae Complex = details: ID 100156; F0, larval collection, 5/2009-4/2010, Chano, Ethiopia; WHO Bioassay 1998; ref Massebo F et al. Parasites Vectors. 2013;6; cited from earlier work

Structure (SMILES) | effectiveness with or without piperonyl butoxide (PBO), in words [2] | mortality (Anopheles arabiensis; 10/2009-11/2009, El Managil) | mortality (Anopheles arabiensis; 10/2009-11/2009, Rufaa) | mortality (Anopheles arabiensis; 10/2009-11/2009, Wad El Hadad) | mortality (Anopheles arabiensis; 10/2010-11/2010, Wad El Hadad) | mortality (Anopheles arabiensis; 10/2010-11/2010, Wad Medani) | further results
CC1(C)C(C=C(Cl)Cl)C1C(=O)OC(C#N)c1cccc(Oc2ccccc2)c1 (centres unmarked) [Cypermethrin] | only effective when partnered with PBO | – | – | – | – | – | % Insecticide depletion Mean across P450s [1]: 74.9 ± 33.3%; % Insecticide depletion CYP6M2 (CYP6M2): 36.8 ± 1.8%; % Insecticide depletion CYP6P3 (CYP6P3 [3]): 98.4 ± 0.1%; % Insecticide depletion CYP6P9a (CYP6P9a [4]): 89.5 ± 2.7%
Clc1ccc(C(c2ccc(Cl)cc2)C(Cl)(Cl)Cl)cc1 [DDT, dichlorodiphenyltrichloroethane] | – | 93 | 58 | 74 | 69 | 70 | –
CNC(=O)Oc1cccc2c1OC(C)(C)O2 [bend, bendiocarb] | – | 100 | 100 | 100 | 100 | 100 | –
COP(=S)(OC)Oc1ccc([N+](=O)[O-])c(C)c1 [feni, fenitrothion] | – | 100 | 100 | 100 | 100 | 100 | –
CC1(C)C(C=C(Cl)Cl)C1C(=O)OC(C#N)c1ccc(F)c(Oc2ccccc2)c1 (centres unmarked) [ß-cyfluthrin] | only effective when partnered with PBO | – | – | – | – | – | –
CC1(C)C(C=C(Cl)Cl)C1C(=O)OC(C#N)c1cccc(Oc2ccccc2)c1 (stereo not drawn) [⍺-cypermethrin, α-cypermethrin] | – | – | – | – | – | – | IC50 (CYP6Z3): 4.4 µM; IC50 (CYP6Z2): 8.6 µM; IC50 [5]: 6.4 µM; IC50 (CYP6P3 [6]): 2.6 µM; IC50 (CYP6P9a [7]): 4.2 µM; IC50 (CYP6P2): 9.8 µM; IC50 (CYP9J5): 13.5 µM; mortality (Gambiae Complex): 50
